Source: PMC6572064, “Discovery of 2-(1-(3-(4-Chloroxyphenyl)-3-oxo- propyl)pyrrolidine-3-yl)-1H-benzo[d]imidazole-4-carboxamide: A Potent Poly(ADP-ribose) Polymerase (PARP) Inhibitor for Treatment of Cancer” (Molecules, 2019)
Read-outs that look alike come from different tables or passages of the source.

Legend:
[1] = tested on: CAPAN-1 (a BRCA-2-mutated pancreatic cancer cell line); experiment: Cell proliferation assay, three-day, CellTiter-Glo, CAPAN-1; type: cell-based; conditions: for IC50 / inhibition at 0.00508 µM / inhibition at 0.0152 µM / inhibition at 0.0457 µM / inhibition at […] / inhibition at 0.41 µM / inhibition at 1.23 µM / inhibition at 3.7 µM / inhibition at 11.11 µM / inhibition at 33.33 µM / inhibition at 100 µM: Homo sapiens; for inhibition at 0.00508 µM: CAPAN-1, Conc. 0.00508 uM; for inhibition at 0.0152 µM: CAPAN-1, Conc. 0.0152 uM; for inhibition at 0.0457 µM: CAPAN-1, Conc. 0.0457 uM; for inhibition at […]: CAPAN-1, Conc. 0.14 uM; for inhibition at 0.41 µM: CAPAN-1, Conc. 0.41 uM; for inhibition at 1.23 µM: CAPAN-1, Conc. 1.23 uM; for inhibition at 3.7 µM: CAPAN-1, Conc. 3.70 uM; for inhibition at 11.11 µM: CAPAN-1, Conc. 11.11 uM; for inhibition at 33.33 µM: CAPAN-1, Conc. 33.33 uM; for inhibition at 100 µM: CAPAN-1, Conc. 100.00 uM
In short: (§1)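 Cells seeded overnight in 384-well plates, then exposed to compounds (DMSO stock diluted in medium) for 72 h at 37 °C, 5% CO2. Viability read as CellTiter-Glo luminescence after 60 min at room temperature.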

PARP-2 = molecular target: T1, PARP-2 (Homo sapiens, UniProt Q9UGN5); experiment: PARP-2 inhibition assay (PARP-2 Chemiluminescent Assay Kit, BPS Bioscience); type: biochemical; conditions: for inhibition at 0.01 µM: 10 nM compound
T1 construct: purchased BPS Bioscience 80552
Description: (§2) The PARP-1 and PARP-2 inhibition assays were performed in outsourcing, by a CRO company, Shanghai Medicilon Inc. (Shanghai, China). […] Briefly, PARP-1 or PARP-2 biotinylated substrate was incubated with compounds or solvent control at varying concentrations and an assay buffer containing the PARP-1 or PARP-2 enzyme.

[2] = tested on: MDA-MB-436 (a BRCA-1-mutated breast cancer cell line); experiment: Cell proliferation assay, three-day, CellTiter-Glo, MDA-MB-436; type: cell-based; conditions: for inhibition at 0.00508 µM / inhibition at 0.0152 µM / inhibition at 0.0457 µM / inhibition at 0.41 µM / inhibition at 1.23 µM / inhibition at 3.7 µM / inhibition at 11.11 µM / inhibition at 33.33 µM / inhibition at 100 µM / IC50: Homo sapiens; for inhibition at 0.00508 µM: MDA-MB-436, MDA-MB-436, Conc. 0.00508 uM; for inhibition at 0.0152 µM: MDA-MB-436, MDA-MB-436, Conc. 0.0152 uM; for inhibition at 0.0457 µM: MDA-MB-436, MDA-MB-436, Conc. 0.0457 uM; for inhibition at 0.41 µM: MDA-MB-436, MDA-MB-436, Conc. 0.41 uM; for inhibition at 1.23 µM: MDA-MB-436, MDA-MB-436, Conc. 1.23 uM; for inhibition at 3.7 µM: MDA-MB-436, MDA-MB-436, Conc. 3.70 uM; for inhibition at 11.11 µM: MDA-MB-436, MDA-MB-436, Conc. 11.11 uM; for inhibition at 33.33 µM: MDA-MB-436, MDA-MB-436, Conc. 33.33 uM; for inhibition at 100 µM: MDA-MB-436, MDA-MB-436, Conc. 100.00 uM
In short: as §1

PARP-1 = molecular target: T2, PARP-1 (Homo sapiens, UniProt P09874); experiment: PARP-1 inhibition assay (PARP-1 Chemiluminescent Assay Kit, BPS Bioscience); type: biochemical; conditions: for inhibition at 0.01 µM: 10 nM compound
T2 construct: purchased BPS Bioscience 80569
Description: as §2

T1 sequence (Q9UGN5 whole entry): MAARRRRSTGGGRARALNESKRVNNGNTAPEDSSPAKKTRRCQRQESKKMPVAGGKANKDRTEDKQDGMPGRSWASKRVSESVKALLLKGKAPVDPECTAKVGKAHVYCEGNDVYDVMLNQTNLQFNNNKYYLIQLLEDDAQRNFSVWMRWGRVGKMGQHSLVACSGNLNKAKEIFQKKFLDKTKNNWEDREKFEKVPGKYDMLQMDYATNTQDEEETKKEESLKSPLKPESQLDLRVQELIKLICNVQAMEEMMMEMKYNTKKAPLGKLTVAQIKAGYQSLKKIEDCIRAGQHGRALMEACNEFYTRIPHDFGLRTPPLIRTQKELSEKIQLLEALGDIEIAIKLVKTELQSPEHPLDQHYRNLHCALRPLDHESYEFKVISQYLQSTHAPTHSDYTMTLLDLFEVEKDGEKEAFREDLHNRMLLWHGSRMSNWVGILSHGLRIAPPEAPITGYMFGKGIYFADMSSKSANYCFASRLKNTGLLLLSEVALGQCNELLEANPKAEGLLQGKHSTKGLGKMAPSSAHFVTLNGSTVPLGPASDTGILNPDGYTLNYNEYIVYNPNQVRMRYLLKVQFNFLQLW
T2 sequence (P09874 whole entry): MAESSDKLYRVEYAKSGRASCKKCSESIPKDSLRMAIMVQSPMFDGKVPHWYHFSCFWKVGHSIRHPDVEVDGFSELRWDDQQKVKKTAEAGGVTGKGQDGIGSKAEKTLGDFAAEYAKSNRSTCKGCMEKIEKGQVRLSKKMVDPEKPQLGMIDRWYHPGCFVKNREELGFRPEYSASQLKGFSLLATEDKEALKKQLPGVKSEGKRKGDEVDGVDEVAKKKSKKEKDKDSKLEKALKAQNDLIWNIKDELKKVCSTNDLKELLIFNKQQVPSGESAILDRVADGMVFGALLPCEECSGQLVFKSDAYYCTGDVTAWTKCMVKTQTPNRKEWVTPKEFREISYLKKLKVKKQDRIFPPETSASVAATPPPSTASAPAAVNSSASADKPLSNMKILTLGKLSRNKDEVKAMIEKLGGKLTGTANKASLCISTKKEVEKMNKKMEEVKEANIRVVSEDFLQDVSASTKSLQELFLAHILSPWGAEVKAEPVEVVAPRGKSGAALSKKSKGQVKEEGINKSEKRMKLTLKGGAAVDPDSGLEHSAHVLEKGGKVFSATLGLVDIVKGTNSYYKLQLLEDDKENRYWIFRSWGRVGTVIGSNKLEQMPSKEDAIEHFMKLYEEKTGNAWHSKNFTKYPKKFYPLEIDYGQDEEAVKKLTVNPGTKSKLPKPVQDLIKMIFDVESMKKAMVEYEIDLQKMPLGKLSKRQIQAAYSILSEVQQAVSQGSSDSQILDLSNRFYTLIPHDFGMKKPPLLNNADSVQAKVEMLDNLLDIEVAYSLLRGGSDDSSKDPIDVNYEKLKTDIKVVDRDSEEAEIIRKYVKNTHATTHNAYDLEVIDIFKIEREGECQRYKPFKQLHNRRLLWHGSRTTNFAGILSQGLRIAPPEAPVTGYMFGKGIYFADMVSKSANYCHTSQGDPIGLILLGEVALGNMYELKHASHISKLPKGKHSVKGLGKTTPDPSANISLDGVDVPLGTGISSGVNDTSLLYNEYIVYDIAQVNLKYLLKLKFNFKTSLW

Question: How did the “Inh % 1” value ([1]; CAPAN-1, Conc. printed as #REF!, replicate 1) turn out when NC(=O)c1cccc2[nH]c(C3CCN(CCC(=O)c4ccccc4)C3)nc12 (centres unmarked) [Compound 5cp, 2-(1-(3-Oxo-3-phenylpropyl)pyrrolidin-3-yl)-1H-benzo[d]imidazole-4-carboxamide] was run?
Answer: 18.8%

Question: What about the “Inh % 2” value ([1]; CAPAN-1, Conc. printed as #REF!, replicate 2) of the same molecule?
Answer: 21.3%

Question: And the LogIC50 ([1]; CAPAN-1, curve-fit output, concentration axis Log (uM))?
Answer: 1.19

Question: What about the IC50 ([1]; CAPAN-1, 72 h, CellTiter-Glo, read-out: CAPAN-1 IC50) of the same molecule?
Answer: 15.5 µM

Question: What about the IC50 ([1]; CAPAN-1, 72 h, supplement Summary sheet, read-out: IC50) of the same molecule?
Answer: 15.5 µM

Question: And the inhibition at 0.00508 µM ([1]; replicate 1, read-out: Inh % 1)?
Answer: -4.4%

Question: And the inhibition at 0.00508 µM ([1]; replicate 2, read-out: Inh % 2)?
Answer: -9.4%

Question: What about the inhibition at 0.0152 µM ([1]; replicate 1, read-out: Inh % 1) of the same molecule?
Answer: 3.3%

Question: What about the inhibition at 0.0152 µM ([1]; replicate 2, read-out: Inh % 2) of the same molecule?
Answer: -2.6%

Question: And the inhibition at 0.0457 µM ([1]; replicate 1, read-out: Inh % 1)?
Answer: 0.846%

Question: What about the inhibition at 0.0457 µM ([1]; replicate 2, read-out: Inh % 2) of the same molecule?
Answer: -4.3%

Question: What about the inhibition at […] ([1]; replicate 1, read-out: Inh % 1) of the same molecule?
Answer: 4.9%

Question: And the inhibition at […] ([1]; replicate 2, read-out: Inh % 2)?
Answer: -2.2%

Question: And the inhibition at 0.41 µM ([1]; replicate 1, read-out: Inh % 1)?
Answer: -7.8%

Question: And the inhibition at 0.41 µM ([1]; replicate 2, read-out: Inh % 2)?
Answer: -11.6%

Question: And the inhibition at 1.23 µM ([1]; replicate 1, read-out: Inh % 1)?
Answer: 17.2%

Question: What about the inhibition at 1.23 µM ([1]; replicate 2, read-out: Inh % 2) of the same molecule?
Answer: -4.7%

Question: And the inhibition at 3.7 µM ([1]; replicate 1, read-out: Inh % 1)?
Answer: -2.4%

Question: What about the inhibition at 3.7 µM ([1]; replicate 2, read-out: Inh % 2) of the same molecule?
Answer: -0.7%

Question: What about the inhibition at 11.11 µM ([1]; replicate 1, read-out: Inh % 1) of the same molecule?
Answer: 18.7%

Question: What about the inhibition at 11.11 µM ([1]; replicate 2, read-out: Inh % 2) of the same molecule?
Answer: 8.5%

Question: What about the inhibition at 33.33 µM ([1]; replicate 1, read-out: Inh % 1) of the same molecule?
Answer: 98.2%

Question: And the inhibition at 33.33 µM ([1]; replicate 2, read-out: Inh % 2)?
Answer: 97.2%

Question: What about the inhibition at 100 µM ([1]; replicate 1, read-out: Inh % 1) of the same molecule?
Answer: 99.7%

Question: What about the inhibition at 100 µM ([1]; replicate 2, read-out: Inh % 2) of the same molecule?
Answer: 99.1%

Question: And the IC50 ([1]; CAPAN-1, curve-fit output, concentration axis Log (uM), read-out: IC50)?
Answer: 15.5 µM

Question: And the inhibition at 0.01 µM (PARP-2; supplement sheet, read-out: 10 nM inhibition% PAPR-2)?
Answer: 76.8%

Question: What about the inhibition at 0.01 µM (PARP-2; read-out: PARP-2 Inhibition % (10 nM)) of the same molecule?
Answer: 76.7%

Question: And the IC50 (PARP-2; read-out: PARP-2 IC50)?
Answer: 0.0032 µM

Question: And the IC50 (PARP-2; supplement sheet, read-out: IC50 PAPR-2)?
Answer: 0.00315 µM

Question: What about the inhibition at 0.00508 µM ([2]; replicate 1, read-out: Inh % 1) of the same molecule?
Answer: -1.4%

Question: What about the inhibition at 0.00508 µM ([2]; replicate 2, read-out: Inh % 2) of the same molecule?
Answer: -0.3%

Question: And the inhibition at 0.0152 µM ([2]; replicate 1, read-out: Inh % 1)?
Answer: -1.8%

Question: And the inhibition at 0.0152 µM ([2]; replicate 2, read-out: Inh % 2)?
Answer: -8.4%

Question: What about the inhibition at 0.0457 µM ([2]; replicate 1, read-out: Inh % 1) of the same molecule?
Answer: -13.1%

Question: What about the inhibition at 0.0457 µM ([2]; replicate 2, read-out: Inh % 2) of the same molecule?
Answer: -7%

Question: What about the inhibition at 0.41 µM ([2]; replicate 1, read-out: Inh % 1) of the same molecule?
Answer: -6.8%

Question: And the inhibition at 0.41 µM ([2]; replicate 2, read-out: Inh % 2)?
Answer: -9.9%

Question: What about the inhibition at 1.23 µM ([2]; replicate 1, read-out: Inh % 1) of the same molecule?
Answer: -10%

Question: And the inhibition at 1.23 µM ([2]; replicate 2, read-out: Inh % 2)?
Answer: -7.6%

Question: What about the inhibition at 3.7 µM ([2]; replicate 1, read-out: Inh % 1) of the same molecule?
Answer: -1.8%

Question: What about the inhibition at 3.7 µM ([2]; replicate 2, read-out: Inh % 2) of the same molecule?
Answer: -0.0749%

Question: What about the inhibition at 11.11 µM ([2]; replicate 1, read-out: Inh % 1) of the same molecule?
Answer: 7.8%

Question: What about the inhibition at 11.11 µM ([2]; replicate 2, read-out: Inh % 2) of the same molecule?
Answer: 4.7%

Question: And the inhibition at 33.33 µM ([2]; replicate 1, read-out: Inh % 1)?
Answer: 91.6%

Question: And the inhibition at 33.33 µM ([2]; replicate 2, read-out: Inh % 2)?
Answer: 79.7%

Question: And the inhibition at 100 µM ([2]; replicate 1, read-out: Inh % 1)?
Answer: 99.8%

Question: What about the inhibition at 100 µM ([2]; replicate 2, read-out: Inh % 2) of the same molecule?
Answer: 99.4%

Question: And the IC50 ([2]; MDA-MB-436, 72 h, CellTiter-Glo, read-out: MDA-MB-436 IC50)?
Answer: 19.8 µM

Question: What about the IC50 ([2]; MDA-MB-436, 72 h, supplement Summary sheet, read-out: IC50) of the same molecule?
Answer: 19.8 µM

Question: And the IC50 ([2]; MDA-MB-436, curve-fit parameter list, concentrations in uM, read-out: IC50)?
Answer: 19.8 µM

Question: What about the LogIC50 ([2]; MDA-MB-436, curve-fit parameter list, Log (uM)) of the same molecule?
Answer: 1.296

Question: What about the inhibition at 0.01 µM (PARP-1; supplement sheet, read-out: 10 nM inhibition% PAPR-1) of the same molecule?
Answer: 68%

Question: What about the inhibition at 0.01 µM (PARP-1; read-out: PARP-1 Inhibition % (10 nM)) of the same molecule?
Answer: 68%

Question: What about the IC50 (PARP-1; read-out: PARP-1 IC50) of the same molecule?
Answer: 0.0036 µM

Question: And the IC50 (PARP-1; supplement sheet, read-out: IC50 PAPR-1)?
Answer: 0.00364 µM
